Test results as given in ChEMBL document CHEMBL3112534, “A click chemistry approach to pleuromutilin derivatives. Part 3: extended footprinting analysis and excellent MRSA inhibition for a derivative with an adenine phenyl side chain” (2014).
Values after ≈ are worked out from the molar mass of the structure shown. Active and inactive are the calls of the source. No cut-off for these calls is given here.

Legend:
Staphylococcus aureus [1] = assay: Antimicrobial activity against […] Staphylococcus aureus RN4220 after 20 hrs by two-fold broth dilution assay; format: functional; details: RN4220, 20 h
Escherichia coli [2] = assay: Antimicrobial activity against […] Escherichia coli AS19 after 20 hrs by two-fold broth dilution assay; format: functional; details: AS19, 20 h
Escherichia coli [3] = assay: Binding affinity to Escherichia coli MRE600 23S rRNA assessed as protection of U2585 at 5 uM by footprinting assay relative to control in presence of CMCT
Escherichia coli [4] = assay: Binding affinity to Escherichia coli MRE600 23S rRNA assessed as protection of U2585 at 50 uM by footprinting assay relative to control in presence of CMCT
Escherichia coli [5] = assay: Binding affinity to Escherichia coli MRE600 23S rRNA assessed as protection of U2506 at 50 uM by footprinting assay relative to control in presence of CMCT
Staphylococcus aureus [6] = assay: Antimicrobial activity against methicillin-resistant Staphylococcus aureus USA300 after 20 hrs by two-fold broth dilution assay; format: functional; details: USA300, 20 h
Escherichia coli [7] = assay: Binding affinity to Escherichia coli MRE600 23S rRNA assessed as protection of U2506 at 5 uM by footprinting assay relative to control in presence of CMCT
Escherichia coli [8] = assay: Binding affinity to Escherichia coli MRE600 23S rRNA assessed as protection of A2059 at 25 uM by footprinting assay relative to control in presence of DMS
Escherichia coli [9] = assay: Binding affinity to Escherichia coli MRE600 23S rRNA assessed as protection of A2062 at 25 uM by footprinting assay relative to control in presence of DMS

Compound | MIC (Staphylococcus aureus [1]) [µg/mL] | MIC (Escherichia coli [2]) [µg/mL] | Activity (Escherichia coli [3]) [%] | Activity (Escherichia coli [4]) [%] | Activity (Escherichia coli [5]) [%] | MIC (Staphylococcus aureus [6]) [µg/mL] | Activity (Escherichia coli [7]) [%] | Activity (Escherichia coli [8]) | Activity (Escherichia coli [9])
C=C[C@]1(C)C[C@@H](OC(=O)Cn2cc(CN(CC)CC)nn2)[C@]2(C)[C@H](C)CC[C@]3(CCC(=O)[C@H]32)[C@@H](C)[C@@H]1O | > 4 | ≥ 4 | 51 | 28 | 8 | > 4 | 27 | – | –
C=C[C@]1(C)C[C@@H](OC(=O)Cn2cc(/C=C/Cn3cnc4c(N)ncnc43)nn2)[C@]2(C)[C@H](C)CC[C@]3(CCC(=O)[C@H]32)[C@@H](C)[C@@H]1O | 1 (≈ 1.66 µM) | 2 (≈ 3.32 µM) | – | – | – | 1 (≈ 1.66 µM) | – | – | –
C=C[C@]1(C)C[C@@H](OC(=O)Cn2cc(COCCn3cnc4c(N)ncnc43)nn2)[C@]2(C)[C@H](C)CC[C@]3(CCC(=O)[C@H]32)[C@@H](C)[C@@H]1O | > 4 | > 4 | 27 | 14 | 4 | > 4 | 9 | – | –
C=C[C@]1(C)C[C@@H](OC(=O)Cn2cc(CCCn3cnc4c(N)ncnc43)nn2)[C@]2(C)[C@H](C)CC[C@]3(CCC(=O)[C@H]32)[C@@H](C)[C@@H]1O | 2 (≈ 3.31 µM) | 2 (≈ 3.31 µM) | – | – | – | 2 (≈ 3.31 µM) | – | – | –
C=C[C@]1(C)C[C@@H](OC(=O)CO)[C@]2(C)[C@H](C)CC[C@]3(CCC(=O)[C@@H]32)[C@@H](C)[C@@H]1O | – | – | 73 | 59 | 5 | – | 15 | – | –
C=C[C@]1(C)C[C@@H](OC(=O)CSCCN(CC)CC)[C@]2(C)[C@H](C)CC[C@]3(CCC(=O)[C@H]32)[C@@H](C)[C@@H]1O [TIAMULIN] | 0.5 (≈ 1.01 µM) | 0.25 (≈ 0.506 µM) | 41 | 40 | 3 | 1 (≈ 2.03 µM) | 5 | – | –
C=C[C@]1(C)C[C@@H](OC(=O)Cn2nncc2CCCn2cnc3c(N)ncnc32)[C@]2(C)[C@H](C)CC[C@]3(CCC(=O)[C@H]32)[C@@H](C)[C@@H]1O | 4 (≈ 6.61 µM) | 4 (≈ 6.61 µM) | – | – | – | > 4 | – | inactive | –
C=C[C@]1(C)C[C@@H](OC(=O)Cn2cc(-c3cccc(-n4cnc5c(N)ncnc54)c3)nn2)[C@]2(C)[C@H](C)CC[C@]3(CCC(=O)[C@H]32)[C@@H](C)[C@@H]1O | 0.06 (≈ 0.0939 µM) | 0.5 (≈ 0.783 µM) | – | – | – | 0.06 (≈ 0.0939 µM) | – | – | –
C=C[C@]1(C)C[C@@H](OC(=O)Cn2cc(-c3ccc(-n4cnc5c(N)ncnc54)cc3)nn2)[C@]2(C)[C@H](C)CC[C@]3(CCC(=O)[C@H]32)[C@@H](C)[C@@H]1O | 0.5 (≈ 0.783 µM) | 4 (≈ 6.26 µM) | – | – | – | 0.5 (≈ 0.783 µM) | – | inactive | inactive
C=C[C@]1(C)C[C@@H](OC(=O)CSC(C)(C)CNC(=O)[C@H](N)C(C)C)[C@]2(C)[C@H](C)CC[C@]3(CCC(=O)[C@H]32)[C@@H](C)[C@@H]1O [VALNEMULIN] | 0.03 (≈ 0.0531 µM) | 0.03 (≈ 0.0531 µM) | 10 | 12 | 2 | 0.06 (≈ 0.106 µM) | 2 | – | –
